Test results: patent US20240400564A1 (Syndax Pharmaceuticals, Inc, priority 2021, published 2024)

Target: hERG (Homo sapiens, UniProt Q12809)
Experiment: Patch clamp assay (hERG tail currents, whole-cell)

Sequence of hERG (Q12809 whole entry): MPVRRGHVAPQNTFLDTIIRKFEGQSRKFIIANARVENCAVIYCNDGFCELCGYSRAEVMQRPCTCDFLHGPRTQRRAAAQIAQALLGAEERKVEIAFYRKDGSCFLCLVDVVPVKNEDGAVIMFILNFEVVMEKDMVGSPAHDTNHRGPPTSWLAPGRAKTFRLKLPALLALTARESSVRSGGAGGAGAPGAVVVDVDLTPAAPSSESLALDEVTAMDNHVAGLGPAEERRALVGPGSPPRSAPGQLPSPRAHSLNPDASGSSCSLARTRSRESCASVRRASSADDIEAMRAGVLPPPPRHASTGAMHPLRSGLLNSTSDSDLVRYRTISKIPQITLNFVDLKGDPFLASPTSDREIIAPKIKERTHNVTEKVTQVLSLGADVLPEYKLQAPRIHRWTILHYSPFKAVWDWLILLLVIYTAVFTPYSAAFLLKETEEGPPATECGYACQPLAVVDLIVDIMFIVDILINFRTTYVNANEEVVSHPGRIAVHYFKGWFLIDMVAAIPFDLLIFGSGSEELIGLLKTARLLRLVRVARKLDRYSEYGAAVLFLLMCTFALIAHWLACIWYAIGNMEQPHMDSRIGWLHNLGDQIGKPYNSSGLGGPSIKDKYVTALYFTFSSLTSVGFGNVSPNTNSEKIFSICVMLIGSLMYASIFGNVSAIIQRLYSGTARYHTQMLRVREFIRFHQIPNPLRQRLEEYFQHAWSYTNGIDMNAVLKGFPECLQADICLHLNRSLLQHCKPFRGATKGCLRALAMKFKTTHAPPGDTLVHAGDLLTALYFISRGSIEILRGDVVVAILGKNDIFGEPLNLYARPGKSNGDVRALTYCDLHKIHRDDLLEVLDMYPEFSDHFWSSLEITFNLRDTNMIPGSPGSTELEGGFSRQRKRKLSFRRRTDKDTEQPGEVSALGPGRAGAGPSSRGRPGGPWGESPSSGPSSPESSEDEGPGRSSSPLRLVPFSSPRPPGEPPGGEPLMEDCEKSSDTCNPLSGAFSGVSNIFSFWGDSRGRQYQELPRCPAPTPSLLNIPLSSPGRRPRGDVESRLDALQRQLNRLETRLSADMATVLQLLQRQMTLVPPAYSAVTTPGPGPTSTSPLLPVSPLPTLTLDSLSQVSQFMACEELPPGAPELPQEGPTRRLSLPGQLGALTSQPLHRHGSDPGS

Structure (SMILES)	hERG % Remaining (10 μM compound)	hERG % Remaining (30 μM compound)	hERG % Remaining (100 μM compound)
CCN(CC)S(=O)(=O)N[C@@H]1CC[C@@H](CN2CCC3(CC2)CN(c2ncncc2Oc2ccc(F)cc2C(=O)N(C(C)C)C2CC(F)(F)C2)C3)OC1 [Example 114, 2-((4-(7-(((2S,5R)-5-((N,N-Diethylsulfamoyl)amino)tetrahydro-2H-pyran-2-yl)methyl)-2,7-diazaspiro[3.5]nonan-2-yl)pyrimidin-5-yl)oxy)-N-(3,3-difluorocyclobutyl)-5-fluoro-N-isopropylbenzamide]	+ (<33%)	+ (<33%)	–
CC(C)N(C(=O)c1cc(F)ccc1Oc1cncnc1N1CC2(CCN(C[C@@H]3CC[C@@H](NS(=O)(=O)N4CCC4)CO3)CC2)C1)C1CC(F)(F)C1 [Example 118, 2-((4-(7-(((2S,5R)-5-(Azetidine-1-sulfonamido)tetrahydro-2H-pyran-2-yl)methyl)-2,7-diazaspiro[3.5]nonan-2-yl)pyrimidin-5-yl)oxy)-N-(3,3-difluorocyclobutyl)-5-fluoro-N-isopropylbenzamide]	++ (233% and ≤66%)	+ (<33%)	–
CC(C)N(C(=O)c1cc(F)ccc1Oc1cncnc1N1CC2(CCN(C[C@@H]3CC[C@@H](NS(=O)(=O)N(C)C(C)C)CO3)CC2)C1)C1CC(F)(F)C1 [Example 119, N-(3,3-Difluorocyclobutyl)-5-fluoro-N-isopropyl-2-((4-(7-(((2S,5R)-5-((N-isopropyl-N-methylsulfamoyl)amino)tetrahydro-2H-pyran-2-yl)methyl)-2,7-diazaspiro[3.5]nonan-2-yl)pyrimidin-5-yl)oxy)benzamide]	–	+ (<33%)	–
C[C@@H]1COC[C@@H](C)N1C(=O)c1cc(F)ccc1Oc1cncnc1N1CC2(CCN(C[C@@H]3CC[C@@H](NS(=O)(=O)c4ccccc4)CO3)CC2)C1 [Example 120, N-((3R,6S)-6-((2-(5-(2-((3R,5R)-3,5-Dimethylmorpholine-4-carbonyl)-4-fluorophenoxy)pyrimidin-4-yl)-2,7-diazaspiro[3.5]nonan-7-yl)methyl)tetrahydro-2H-pyran-3-yl)benzenesulfonamide]	+++ (≥66%)	++ (233% and ≤66%)	–
C[C@@H]1COC[C@@H](C)N1C(=O)c1cc(F)ccc1Oc1cncnc1N1CC2(CCN(C[C@@H]3CC[C@@H](NS(=O)(=O)N4CCC4)CO3)CC2)C1 [Example 121, N-((3R,6S)-6-((2-(5-(2-((3R,5R)-3,5-Dimethylmorpholine-4-carbonyl)-4-fluorophenoxy)pyrimidin-4-yl)-2,7-diazaspiro[3.5]nonan-7-yl)methyl)tetrahydro-2H-pyran-3-yl)azetidine-1-sulfonamide]	–	+++ (≥66%)	–
Cc1nc(S(=O)(=O)N[C@@H]2CC[C@@H](CN3CCC4(CC3)CN(c3ncncc3Oc3ccc(F)cc3C(=O)N3[C@H](C)COC[C@H]3C)C4)OC2)cs1 [Example 122, N-((3R,6S)-6-((2-(5-(2-((3R,5R)-3,5-Dimethylmorpholine-4-carbonyl)-4-fluorophenoxy)pyrimidin-4-yl)-2,7-diazaspiro[3.5]nonan-7-yl)methyl)tetrahydro-2H-pyran-3-yl)-2-methylthiazole-4-sulfonamide]	–	+++ (≥66%)	–
C[C@@H]1COC[C@@H](C)N1C(=O)c1cc(F)ccc1Oc1cncnc1N1CC2(CCN(C[C@@H]3CC[C@@H](NS(=O)(=O)N(C)C)CO3)CC2)C1 [Example 123, {[(3R,6S)-6-{[2-(5-{2-[(3R,5R)-3,5-Dimethylmorpholine-4-carbonyl]-4-fluorophenoxy}pyrimidin-4-yl)-2,7-diazaspiro[3.5]nonan-7-yl]methyl}oxan-3-yl]sulfamoyl}dimethylamine]	–	+++ (≥66%)	–
CCNS(=O)(=O)N[C@@H]1CC[C@@H](CN2CCC3(CC2)CN(c2ncncc2Oc2ccc(F)cc2C(=O)N2[C@H](C)COC[C@H]2C)C3)OC1 [Example 125, {[(3R,6S)-6-{[2-(5-{2-[(3R,5R)-3,5-Dimethylmorpholine-4-carbonyl]-4-fluorophenoxy}pyrimidin-4-yl)-2,7-diazaspiro[3.5]nonan-7-yl]methyl}oxan-3-yl]sulfamoyl}(ethyl)amine]	–	+++ (≥66%)	–
C[C@@H]1COC[C@H](C)N1C(=O)c1cc(F)ccc1Oc1cncnc1N1CC2(CCN(C[C@@H]3CC[C@@H](NS(=O)(=O)c4ccccc4)CO3)CC2)C1 [Example 130, N-((3R,6S)-6-((2-(5-(2-((3S,5R)-3,5-Dimethylmorpholine-4-carbonyl)-4-fluorophenoxy)pyrimidin-4-yl)-2,7-diazaspiro[3.5]nonan-7-yl)methyl)tetrahydro-2H-pyran-3-yl)benzenesulfonamide]	+++ (≥66%)	++ (233% and ≤66%)	–
CC(C)N(C(=O)c1cc(F)ccc1Oc1cncnc1N1CC2(CCN(C[C@@H]3CC[C@@H](NS(=O)(=O)N4CCC4)CO3)CC2)C1)[C@H]1CCOC1 [Example 134, 2-((4-(7-(((2S,5R)-5-(Azetidine-1-sulfonamido)tetrahydro-2H-pyran-2-yl)methyl)-2,7-diazaspiro[3.5]nonan-2-yl)pyrimidin-5-yl)oxy)-5-fluoro-N-isopropyl-N-((S)-tetrahydrofuran-3-yl)benzamide]	–	+++ (≥66%)	–
CC(C)N(CCC#N)C(=O)c1cc(F)ccc1Oc1cncnc1N1CC2(CCN(C[C@@H]3CC[C@@H](NS(=O)(=O)c4ccccc4)CO3)CC2)C1 [Example 136, N-(2-Cyanoethyl)-5-fluoro-N-isopropyl-2-((4-(7-(((2S,5R)-5-(phenylsulfonamido)tetrahydro-2H-pyran-2-yl)methyl)-2,7-diazaspiro[3.5]nonan-2-yl)pyrimidin-5-yl)oxy)benzamide]	+++ (≥66%)	+ (<33%)	–
CC(C)N(C)C(=O)c1cc(F)ccc1Oc1cncnc1N1CC2(CCN(C[C@@H]3CC[C@@H](NS(=O)(=O)N4CCC4)CO3)CC2)C1 [Example 138, 2-((4-(7-(((2S,5R)-5-(Azetidine-1-sulfonamido)tetrahydro-2H-pyran-2-yl)methyl)-2,7-diazaspiro[3.5]nonan-2-yl)pyrimidin-5-yl)oxy)-5-fluoro-N-isopropyl-N-methylbenzamide]	–	+++ (≥66%)	–
CCNS(=O)(=O)N[C@@H]1CC[C@@H](CN2CCC3(CC2)CN(c2ncncc2Oc2ccc(F)cc2C(=O)N(CC)C(C)C)C3)OC1 [Example 141, N-Ethyl-2-((4-(7-(((2S,5R)-5-((N-ethylsulfamoyl)amino)tetrahydro-2H-pyran-2-yl)methyl)-2,7-diazaspiro[3.5]nonan-2-yl)pyrimidin-5-yl)oxy)-5-fluoro-N-isopropylbenzamide]	–	+++ (≥66%)	–
CCN(C(=O)c1cc(F)ccc1Oc1cncnc1N1CC2(CCN(C[C@@H]3CC[C@@H](NS(=O)(=O)NC4CC4)CO3)CC2)C1)C(C)C [Example 142, 2-((4-(7-(((2S,5R)-5-((N-Cyclopropylsulfamoyl)amino)tetrahydro-2H-pyran-2-yl)methyl)-2,7-diazaspiro[3.5]nonan-2-yl)pyrimidin-5-yl)oxy)-N-ethyl-5-fluoro-N-isopropylbenzamide]	–	++ (233% and ≤66%)	–
CNS(=O)(=O)N[C@@H]1CC[C@@H](CN2CCC3(CC2)CN(c2ncncc2Oc2ccc(F)cc2C(=O)N(C(C)C)C(C)C)C3)OC1 [Example 143, 5-Fluoro-N,N-diisopropyl-2-((4-(7-(((2S,5R)-5-((N-methylsulfamoyl)amino)tetrahydro-2H-pyran-2-yl)methyl)-2,7-diazaspiro[3.5]nonan-2-5-yl)pyrimidin-5-yl)oxy)benzamide]	–	+++ (≥66%)	+++ (≥66%)
CCNS(=O)(=O)N[C@@H]1CC[C@@H](CN2CCC3(CC2)CN(c2ncncc2Oc2ccc(F)cc2C(=O)N(C(C)C)C(C)C)C3)OC1 [Example 144, 2-((4-(7-(((2S,5R)-5-((N-Ethylsulfamoyl)amino)tetrahydro-2H-pyran-2-yl)methyl)-2,7-diazaspiro[3.5]nonan-2-yl)pyrimidin-5-yl)oxy)-5-fluoro-N,N-diisopropylbenzamide]	–	+++ (≥66%)	–
CCNS(=O)(=O)N[C@@H]1CC[C@@H](CN2CCC3(CC2)CN(c2ncncc2Oc2ccc(F)cc2C(=O)N(C(C)C)C2CC2)C3)OC1 [Example 145, N-Cyclopropyl-2-((4-(7-(((2S,5R)-5-((N-ethylsulfamoyl)amino)tetrahydro-2H-pyran-2-yl)methyl)-2,7-diazaspiro[3.5]nonan-2-yl)pyrimidin-5-yl)oxy)-5-fluoro-N-isopropylbenzamide]	–	+++ (≥66%)	–
CCNS(=O)(=O)N[C@@H]1CC[C@@H](CN2CCC3(CC2)CN(c2ncncc2Oc2ccc(F)cc2C(=O)N(CC(F)F)C(C)C)C3)OC1 [Example 147, N-(2,2-Difluoroethyl)-2-((4-(7-(((2S,5R)-5-((N-ethylsulfamoyl)amino)tetrahydro-2H-pyran-2-yl)methyl)-2,7-diazaspiro[3.5]nonan-2-yl)pyrimidin-5-yl)oxy)-5-fluoro-N-isopropylbenzamide]	+++ (≥66%)	+++ (≥66%)	–
CC(C)N(CC(F)F)C(=O)c1cc(F)ccc1Oc1cncnc1N1CC2(CCN(C[C@@H]3CC[C@@H](NS(=O)(=O)NCC4CC4)CO3)CC2)C1 [Example 148, 2-((4-(7-(((2S,5R)-5-((N-(Cyclopropylmethyl)sulfamoyl)amino)tetrahydro-2H-pyran-2-yl)methyl)-2,7-diazaspiro[3.5]nonan-2-yl)pyrimidin-5-yl)oxy)-N-(2,2-difluoroethyl)-5-fluoro-N-isopropylbenzamide]	–	+++ (≥66%)	–
CC(C)N(CC(F)F)C(=O)c1cc(F)ccc1Oc1cncnc1N1CC2(CCN(C[C@@H]3CC[C@@H](NS(=O)(=O)NC4CC4)CO3)CC2)C1 [Example 149, 2-((4-(7-(((2S,5R)-5-((N-Cyclopropylsulfamoyl)amino)tetrahydro-2H-pyran-2-yl)methyl)-2,7-diazaspiro[3.5]nonan-2-yl)pyrimidin-5-yl)oxy)-N-(2,2-difluoroethyl)-5-fluoro-N-isopropylbenzamide]	–	+++ (≥66%)	–
